Read-outs that look alike come from different tables or passages of the source.
How the values were obtained:
Assay in all cases: KiNativ, MOLM13 live cells
Type in all cases: cell-based
BRAF = BRAF (Homo sapiens, UniProt P15056); details: MOLM-13; 100 nM, 2 hours; Lys2; read-out: Inhibition vs DMSO
Experimental: (§1) Samples were analyzed by KiNativ in situ kinase profiling by ActivX Biosciences.

SLK = SLK (Homo sapiens, UniProt Q9H2G2); details: MOLM-13; 100 nM, 2 hours; Lys2; read-out: Inhibition vs DMSO
Experimental: as §1

MAP3K3 = MAP3K3 (Homo sapiens, UniProt Q99759); details: MOLM-13; 100 nM, 2 hours; Lys1; read-out: Inhibition vs DMSO
Experimental: as §1

Erk5 = Erk5 (Homo sapiens, UniProt Q13164); details: MOLM-13; 100 nM, 2 hours; Lys2; read-out: Inhibition vs DMSO
Experimental: as §1

PLK1 = PLK1 (Homo sapiens, UniProt P53350); details: MOLM-13, 2 h, 100 nM
Experimental: as §1

AKT1 = AKT1 (Homo sapiens, UniProt P31749); details: MOLM-13; 100 nM, 2 hours; ATP Loop; read-out: Inhibition vs DMSO
Experimental: as §1

PI4KB = PI4KB (Homo sapiens, UniProt Q9UBF8); details: MOLM-13, 2 h, 100 nM, ATP, read-out: Inhibition vs DMSO
Experimental: as §1

FRAP = FRAP (Homo sapiens, UniProt P42345); details: MOLM-13; 100 nM, 2 hours; ATP; read-out: Inhibition vs DMSO
Experimental: as §1

SYK = SYK (Homo sapiens, UniProt P43405); details: 100 nM, 2 hours
Experimental: as §1

RSK1 domain1 = molecular target: T1, RSK1 domain1 (Homo sapiens, UniProt Q15418); details: MOLM-13; 100 nM, 2 hours; Activation Loop; read-out: Inhibition vs DMSO
T1 construct: RSK1 domain1
Experimental: as §1

JAK1 domain1 = molecular target: T2, JAK1 domain1 (Homo sapiens, UniProt P23458); details: 100 nM, 2 hours; Activation Loop
T2 construct: JAK1 domain1
Experimental: as §1

IRAK3 = molecular target: T3, IRAK3 (Homo sapiens, UniProt Q9Y616); details: MOLM-13; 100 nM, 2 hours; Lys1; read-out: Inhibition vs DMSO
T3 sequence (Q9Y616 1-596): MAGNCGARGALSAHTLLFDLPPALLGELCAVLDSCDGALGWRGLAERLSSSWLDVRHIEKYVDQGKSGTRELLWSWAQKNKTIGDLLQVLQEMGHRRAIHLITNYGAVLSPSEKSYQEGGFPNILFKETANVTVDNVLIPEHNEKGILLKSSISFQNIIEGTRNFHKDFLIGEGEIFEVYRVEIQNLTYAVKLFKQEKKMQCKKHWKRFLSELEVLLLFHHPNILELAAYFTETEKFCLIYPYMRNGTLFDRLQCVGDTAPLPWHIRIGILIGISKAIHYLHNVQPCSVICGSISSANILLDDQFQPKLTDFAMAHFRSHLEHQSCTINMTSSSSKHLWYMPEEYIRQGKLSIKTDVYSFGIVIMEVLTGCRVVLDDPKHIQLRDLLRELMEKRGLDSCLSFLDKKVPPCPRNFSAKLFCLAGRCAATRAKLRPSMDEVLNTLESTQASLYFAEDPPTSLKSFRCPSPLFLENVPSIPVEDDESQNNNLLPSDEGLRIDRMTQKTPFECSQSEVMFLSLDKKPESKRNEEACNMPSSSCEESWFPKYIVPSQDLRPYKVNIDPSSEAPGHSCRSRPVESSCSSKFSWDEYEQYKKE
Experimental: as §1

NEK8 = NEK8 (Homo sapiens, UniProt Q86SG6); details: MOLM-13; 100 nM, 2 hours; Lys2; read-out: Inhibition vs DMSO
Experimental: as §1

ACK = ACK (Homo sapiens, UniProt Q07912); details: MOLM-13; 100 nM, 2 hours; Lys1; read-out: Inhibition vs DMSO
Experimental: as §1

PRPK = PRPK (Homo sapiens, UniProt Q96S44); details: MOLM-13; 100 nM, 2 hours; ATP Loop; read-out: Inhibition vs DMSO
Experimental: as §1

PCTAIRE2 = PCTAIRE2 (Homo sapiens, UniProt Q00537); details: MOLM-13; 100 nM, 2 hours; Lys2; read-out: Inhibition vs DMSO
Experimental: as §1

TYK2 domain2 = molecular target: T4, TYK2 domain2 (Homo sapiens, UniProt P29597); details: 100 nM, 2 hours; Activation Loop
T4 construct: TYK2 domain2
Experimental: as §1

Erk2 = Erk2 (Homo sapiens, UniProt P28482); details: MOLM-13; 100 nM, 2 hours; Lys2; read-out: Inhibition vs DMSO
Experimental: as §1

MAP3K4 = MAP3K4 (Homo sapiens, UniProt Q9Y6R4); details: MOLM-13, 2 h, 100 nM
Experimental: as §1

PCTAIRE1 = PCTAIRE1 (Homo sapiens, UniProt Q00536); details: MOLM-13; 100 nM, 2 hours; Lys1; read-out: Inhibition vs DMSO
Experimental: as §1

CaMK1d = CaMK1d (Homo sapiens, UniProt Q8IU85); details: MOLM-13; 100 nM, 2 hours; Lys1; read-out: Inhibition vs DMSO
Experimental: as §1

MST3 = MST3 (Homo sapiens, UniProt Q9Y6E0); details: 100 nM, 2 hours; Lys2
Experimental: as §1

IRAK4 = molecular target: T5, IRAK4 (Homo sapiens, UniProt Q9NWZ3); details: 100 nM, 2 hours
T5 sequence (Q9NWZ3 1-460): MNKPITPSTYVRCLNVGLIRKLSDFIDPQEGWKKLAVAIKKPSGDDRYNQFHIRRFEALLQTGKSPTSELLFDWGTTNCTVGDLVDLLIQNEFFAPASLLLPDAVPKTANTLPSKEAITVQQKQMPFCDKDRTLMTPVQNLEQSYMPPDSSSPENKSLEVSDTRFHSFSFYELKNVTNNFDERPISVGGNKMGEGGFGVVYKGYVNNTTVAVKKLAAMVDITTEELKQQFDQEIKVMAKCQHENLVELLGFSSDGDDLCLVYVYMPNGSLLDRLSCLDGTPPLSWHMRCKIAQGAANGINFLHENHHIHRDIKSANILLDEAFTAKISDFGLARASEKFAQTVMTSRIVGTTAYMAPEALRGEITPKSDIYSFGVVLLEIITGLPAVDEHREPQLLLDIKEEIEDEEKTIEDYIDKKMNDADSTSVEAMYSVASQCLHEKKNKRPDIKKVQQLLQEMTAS
Experimental: as §1

[1] = Lys1, read-out: Inhibition vs DMSO
[2] = Lys2, read-out: Inhibition vs DMSO

Sequence of PI4KB (Q9UBF8 whole entry): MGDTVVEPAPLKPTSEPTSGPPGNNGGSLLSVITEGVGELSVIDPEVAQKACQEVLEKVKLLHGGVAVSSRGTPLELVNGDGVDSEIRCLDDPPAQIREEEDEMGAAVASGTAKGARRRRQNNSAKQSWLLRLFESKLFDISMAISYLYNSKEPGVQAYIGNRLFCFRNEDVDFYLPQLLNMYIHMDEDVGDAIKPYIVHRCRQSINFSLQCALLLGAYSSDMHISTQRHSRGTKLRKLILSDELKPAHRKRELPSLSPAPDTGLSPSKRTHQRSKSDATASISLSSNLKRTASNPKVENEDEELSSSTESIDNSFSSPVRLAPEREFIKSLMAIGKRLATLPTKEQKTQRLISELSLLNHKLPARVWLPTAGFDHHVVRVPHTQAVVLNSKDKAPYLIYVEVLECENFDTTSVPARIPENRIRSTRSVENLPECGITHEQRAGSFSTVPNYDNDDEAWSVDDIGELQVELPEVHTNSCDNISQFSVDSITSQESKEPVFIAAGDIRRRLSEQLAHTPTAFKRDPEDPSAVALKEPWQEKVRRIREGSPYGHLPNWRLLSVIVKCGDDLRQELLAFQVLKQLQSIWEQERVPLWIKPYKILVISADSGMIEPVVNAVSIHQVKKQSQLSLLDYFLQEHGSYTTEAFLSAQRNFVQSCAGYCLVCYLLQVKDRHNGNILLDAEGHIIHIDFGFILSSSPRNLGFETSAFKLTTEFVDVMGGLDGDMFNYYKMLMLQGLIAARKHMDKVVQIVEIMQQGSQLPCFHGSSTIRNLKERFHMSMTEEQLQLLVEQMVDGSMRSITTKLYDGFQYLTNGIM
Sequence of MAP3K4 (Q9Y6R4 whole entry): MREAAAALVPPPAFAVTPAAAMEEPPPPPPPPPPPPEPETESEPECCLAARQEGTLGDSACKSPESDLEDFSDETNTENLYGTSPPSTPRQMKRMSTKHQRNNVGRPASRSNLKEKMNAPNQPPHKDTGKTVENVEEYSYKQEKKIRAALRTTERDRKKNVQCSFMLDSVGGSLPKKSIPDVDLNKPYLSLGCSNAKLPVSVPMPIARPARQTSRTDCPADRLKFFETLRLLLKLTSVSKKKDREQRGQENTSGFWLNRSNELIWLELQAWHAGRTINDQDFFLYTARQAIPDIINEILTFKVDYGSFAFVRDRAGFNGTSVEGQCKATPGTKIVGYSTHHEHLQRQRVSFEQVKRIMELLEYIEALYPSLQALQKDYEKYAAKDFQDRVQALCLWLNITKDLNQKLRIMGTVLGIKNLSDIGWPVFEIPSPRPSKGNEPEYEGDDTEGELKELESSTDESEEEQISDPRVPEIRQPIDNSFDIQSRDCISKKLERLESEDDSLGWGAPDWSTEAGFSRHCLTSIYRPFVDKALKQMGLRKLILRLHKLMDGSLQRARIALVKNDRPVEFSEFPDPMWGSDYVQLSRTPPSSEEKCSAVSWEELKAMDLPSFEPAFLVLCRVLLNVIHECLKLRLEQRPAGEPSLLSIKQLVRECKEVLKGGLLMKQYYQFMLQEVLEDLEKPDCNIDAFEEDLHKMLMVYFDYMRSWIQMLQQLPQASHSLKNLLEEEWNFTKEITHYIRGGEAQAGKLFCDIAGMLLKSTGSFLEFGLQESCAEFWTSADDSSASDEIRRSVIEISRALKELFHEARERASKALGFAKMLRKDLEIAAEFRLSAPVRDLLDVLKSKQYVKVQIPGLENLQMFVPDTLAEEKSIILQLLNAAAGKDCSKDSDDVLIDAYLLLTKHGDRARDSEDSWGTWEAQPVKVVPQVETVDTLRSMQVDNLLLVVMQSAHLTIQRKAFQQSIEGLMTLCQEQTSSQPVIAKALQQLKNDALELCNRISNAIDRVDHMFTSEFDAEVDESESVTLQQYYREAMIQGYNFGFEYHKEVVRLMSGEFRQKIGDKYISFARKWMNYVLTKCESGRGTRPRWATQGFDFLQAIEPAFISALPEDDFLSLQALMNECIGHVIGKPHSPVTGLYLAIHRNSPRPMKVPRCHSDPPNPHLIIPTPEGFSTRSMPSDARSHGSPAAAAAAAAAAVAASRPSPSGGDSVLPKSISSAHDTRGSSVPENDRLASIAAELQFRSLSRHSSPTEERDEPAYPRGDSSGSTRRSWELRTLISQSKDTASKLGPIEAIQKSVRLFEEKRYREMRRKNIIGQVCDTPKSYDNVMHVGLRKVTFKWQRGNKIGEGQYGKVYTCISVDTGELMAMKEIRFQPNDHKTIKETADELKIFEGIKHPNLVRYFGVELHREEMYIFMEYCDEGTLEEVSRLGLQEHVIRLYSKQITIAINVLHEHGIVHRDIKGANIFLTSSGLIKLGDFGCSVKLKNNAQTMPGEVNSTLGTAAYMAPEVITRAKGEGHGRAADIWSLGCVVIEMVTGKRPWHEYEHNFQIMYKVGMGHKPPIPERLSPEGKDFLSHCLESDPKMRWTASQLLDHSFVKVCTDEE
Sequence of PLK1 (P53350 whole entry): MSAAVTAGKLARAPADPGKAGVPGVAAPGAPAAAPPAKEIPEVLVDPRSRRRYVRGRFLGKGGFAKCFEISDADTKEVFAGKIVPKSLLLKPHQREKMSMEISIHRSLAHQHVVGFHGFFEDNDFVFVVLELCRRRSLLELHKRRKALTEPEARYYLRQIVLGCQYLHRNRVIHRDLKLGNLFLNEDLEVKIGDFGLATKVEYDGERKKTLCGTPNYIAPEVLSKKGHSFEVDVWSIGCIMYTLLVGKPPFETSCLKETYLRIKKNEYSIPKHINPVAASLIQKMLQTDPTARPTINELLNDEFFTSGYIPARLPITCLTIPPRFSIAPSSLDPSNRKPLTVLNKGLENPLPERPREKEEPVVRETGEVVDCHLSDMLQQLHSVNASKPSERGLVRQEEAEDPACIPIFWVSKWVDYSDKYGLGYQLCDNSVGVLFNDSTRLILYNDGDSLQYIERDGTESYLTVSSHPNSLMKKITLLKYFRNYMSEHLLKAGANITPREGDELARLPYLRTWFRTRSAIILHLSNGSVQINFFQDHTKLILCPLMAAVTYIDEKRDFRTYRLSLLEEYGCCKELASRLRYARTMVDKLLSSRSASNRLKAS
Sequence of PRPK (Q96S44 whole entry): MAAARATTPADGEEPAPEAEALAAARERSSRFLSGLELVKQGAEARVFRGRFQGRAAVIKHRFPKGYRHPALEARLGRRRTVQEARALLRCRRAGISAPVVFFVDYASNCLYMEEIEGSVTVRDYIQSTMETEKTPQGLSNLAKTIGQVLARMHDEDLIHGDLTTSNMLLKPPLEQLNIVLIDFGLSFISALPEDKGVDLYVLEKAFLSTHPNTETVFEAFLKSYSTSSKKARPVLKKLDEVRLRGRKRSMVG
Sequence of Erk2 (P28482 whole entry): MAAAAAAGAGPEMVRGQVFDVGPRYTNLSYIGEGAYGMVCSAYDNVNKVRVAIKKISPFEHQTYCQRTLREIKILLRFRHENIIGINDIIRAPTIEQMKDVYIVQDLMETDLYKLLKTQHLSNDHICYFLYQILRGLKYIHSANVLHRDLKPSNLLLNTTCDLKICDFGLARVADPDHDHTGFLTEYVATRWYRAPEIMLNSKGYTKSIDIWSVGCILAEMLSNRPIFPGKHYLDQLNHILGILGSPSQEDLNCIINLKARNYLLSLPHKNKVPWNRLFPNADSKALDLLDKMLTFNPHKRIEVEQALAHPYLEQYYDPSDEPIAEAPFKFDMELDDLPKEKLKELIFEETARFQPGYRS
Sequence of Erk5 (Q13164 whole entry): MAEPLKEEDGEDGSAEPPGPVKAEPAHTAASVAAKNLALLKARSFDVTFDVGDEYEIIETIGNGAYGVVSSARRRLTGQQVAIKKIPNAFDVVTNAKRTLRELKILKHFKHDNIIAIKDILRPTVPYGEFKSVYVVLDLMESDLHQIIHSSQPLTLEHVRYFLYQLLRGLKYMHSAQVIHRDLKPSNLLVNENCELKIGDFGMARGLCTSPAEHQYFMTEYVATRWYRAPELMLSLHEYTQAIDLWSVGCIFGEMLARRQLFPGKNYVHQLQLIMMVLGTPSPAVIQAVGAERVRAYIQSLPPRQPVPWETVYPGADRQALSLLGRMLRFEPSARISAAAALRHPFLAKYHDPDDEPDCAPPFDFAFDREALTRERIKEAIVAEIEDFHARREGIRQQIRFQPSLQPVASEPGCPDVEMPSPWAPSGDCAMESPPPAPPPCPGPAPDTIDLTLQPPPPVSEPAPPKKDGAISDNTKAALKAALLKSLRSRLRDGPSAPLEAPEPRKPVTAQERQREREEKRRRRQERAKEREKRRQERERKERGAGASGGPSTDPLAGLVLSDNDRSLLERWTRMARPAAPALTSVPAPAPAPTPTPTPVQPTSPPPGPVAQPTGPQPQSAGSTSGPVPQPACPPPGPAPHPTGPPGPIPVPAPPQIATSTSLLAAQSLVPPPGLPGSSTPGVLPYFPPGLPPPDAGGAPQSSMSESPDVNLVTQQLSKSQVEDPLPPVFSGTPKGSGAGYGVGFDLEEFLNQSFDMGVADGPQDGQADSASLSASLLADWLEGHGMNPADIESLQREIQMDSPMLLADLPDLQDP
Sequence of CaMK1d (Q8IU85 whole entry): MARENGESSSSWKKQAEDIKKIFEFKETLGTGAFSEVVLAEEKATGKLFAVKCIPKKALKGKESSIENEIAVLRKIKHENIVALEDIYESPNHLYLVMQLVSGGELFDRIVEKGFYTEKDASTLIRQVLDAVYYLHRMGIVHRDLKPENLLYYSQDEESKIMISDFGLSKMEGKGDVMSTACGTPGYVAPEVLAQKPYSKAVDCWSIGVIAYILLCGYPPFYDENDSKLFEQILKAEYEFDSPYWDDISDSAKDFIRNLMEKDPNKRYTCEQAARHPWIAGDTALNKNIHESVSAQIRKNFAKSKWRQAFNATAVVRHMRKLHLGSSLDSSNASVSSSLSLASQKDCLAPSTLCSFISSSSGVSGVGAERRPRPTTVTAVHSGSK

For `CN1CCN(Cc2ccc(Nc3ncc(Cl)c(Nc4ccccc4S(=O)(=O)N(C)C)n3)cc2)CC1` [TP-0903], the inhibition at 0.1 µM (BRAF) was 16.8%, the inhibition at 0.1 µM (SLK) was 72.2% and the inhibition at 0.1 µM (MAP3K3) was 13%. For the same compound, the inhibition at 0.1 µM (Erk5) was 84.9%, the inhibition at 0.1 µM (PLK1; [1]) was 4.9% and the inhibition at 0.1 µM (PLK1; [2]) was 0.247%. It also gave an inhibition at 0.1 µM (AKT1) of -54.3%, an inhibition at 0.1 µM (PI4KB; LLSVIVKCGDDLRQELLAFQVLK) of -5.9% and an inhibition at 0.1 µM (PI4KB; VPHTQAVVLNSKDK) of -12.3%. The inhibition at 0.1 µM (FRAP) was -9.8%, the “Inhibition vs DMSO” value (SYK; Activation Loop, AQTHGKWPVK) was 27.9% and the “Inhibition vs DMSO” value (SYK; Activation Loop, ISDFGLSKALR) was 17.6%. For the same compound, the “Inhibition vs DMSO” value (SYK; Lys1) was 8.1%, the inhibition at 0.1 µM (RSK1 domain1) was -3.8% and the “Inhibition vs DMSO” value (JAK1 domain1) was 82.7%. The inhibition at 0.1 µM (IRAK3) was 92.5%, the inhibition at 0.1 µM (NEK8) was -5.3% and the inhibition at 0.1 µM (ACK) was 44.5%. For the same compound, the inhibition at 0.1 µM (PRPK) was 29.4%, the inhibition at 0.1 µM (PCTAIRE2) was 20.4% and the “Inhibition vs DMSO” value (TYK2 domain2) was -0.9%. For the same compound, the inhibition at 0.1 µM (Erk2) was -9.4%, the inhibition at 0.1 µM (MAP3K4; [1]) was 8.8% and the inhibition at 0.1 µM (MAP3K4; [2]) was 6.6%. The inhibition at 0.1 µM (PCTAIRE1) was 69.6%, the inhibition at 0.1 µM (CaMK1d) was 23.2% and the “Inhibition vs DMSO” value (MST3) was 55.3%. For the same compound, the “Inhibition vs DMSO” value (IRAK4; Lys1) was 13.2% and the “Inhibition vs DMSO” value (IRAK4; Lys2) was 18.7%.
